# Test results as given in publication PMC8385535 (Frontiers in Pharmacology, 2021).
# Target: T1, IGPD (imidazole glycerol phosphate dehydratase) (Staphylococcus xylosus, UniProt A0A5R9B0J7)
# T1 construct: gene hisB; recombinant, pET30a-hisB, E. coli host; His tag implied (coupled to Octet NTA sensor)
# T1 sequence (A0A5R9B0J7 1-192): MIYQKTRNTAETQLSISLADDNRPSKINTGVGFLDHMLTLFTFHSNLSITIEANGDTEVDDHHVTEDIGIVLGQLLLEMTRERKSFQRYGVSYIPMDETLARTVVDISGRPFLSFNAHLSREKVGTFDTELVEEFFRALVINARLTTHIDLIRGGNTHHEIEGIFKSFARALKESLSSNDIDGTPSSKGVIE
# Test: bio-layer interferometry (Octet, IGPD on NTA tip)
# Assay type: binding
smiles,measurement,value
C[C@@H]1O[C@@H](OC[C@H]2O[C@@H](Oc3c(-c4ccc(O)c(O)c4)oc4cc(O)cc(O)c4c3=O)[C@H](O)[C@@H](O)[C@@H]2O)[C@H](O)[C@H](O)[C@H]1O [rutin],Kd,1000 µM
